Assay results taken from US9067911B2, “Piperidine derivatives” (Hoffmann-La Roche Inc., priority 2009, dated 2015).
Structures can show the parent of a compound that is named as a salt.

Target: T1, mGlyT-1b (Mus musculus, UniProt P28571)
T1 construct: host or cells: Flp-in-CHO
T1 sequence (P28571 1-651 isoform P28571-2): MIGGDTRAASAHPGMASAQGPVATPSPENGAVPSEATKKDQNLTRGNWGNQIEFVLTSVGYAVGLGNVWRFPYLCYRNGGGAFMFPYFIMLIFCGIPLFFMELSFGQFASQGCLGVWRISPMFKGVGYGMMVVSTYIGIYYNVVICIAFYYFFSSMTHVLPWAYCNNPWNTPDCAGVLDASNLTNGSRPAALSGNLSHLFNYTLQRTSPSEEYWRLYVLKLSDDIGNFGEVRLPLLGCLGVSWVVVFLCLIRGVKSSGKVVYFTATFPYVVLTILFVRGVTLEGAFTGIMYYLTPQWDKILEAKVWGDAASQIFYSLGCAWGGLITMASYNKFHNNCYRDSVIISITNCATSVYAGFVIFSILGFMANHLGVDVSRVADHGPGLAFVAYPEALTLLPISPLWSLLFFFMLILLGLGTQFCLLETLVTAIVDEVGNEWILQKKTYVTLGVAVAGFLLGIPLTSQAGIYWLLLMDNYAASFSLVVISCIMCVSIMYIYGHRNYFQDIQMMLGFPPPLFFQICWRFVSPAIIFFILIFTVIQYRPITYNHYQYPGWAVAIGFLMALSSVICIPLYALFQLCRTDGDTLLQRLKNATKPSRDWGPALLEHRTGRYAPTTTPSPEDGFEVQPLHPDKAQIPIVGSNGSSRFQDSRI
Assay: Glycine uptake inhibition assay (mGlyT-1b)
Format: cell-based
Conditions: [3H]-glycine uptake, Flp-in-CHO cells stably transfected with mGlyT1b cDNA, 20 min preincubation at 22° C.
Description: Nutrient mixture F-12 (Gibco Life-technologies), fetal bovine serum (FBS) 5%, (Gibco life technologies), Penicillin/Streptomycin 1% (Gibco life technologies), Hygromycin 0.6 mg/ml (Gibco life technologies), Glutamine 1 mM Gibco life technologies)
150 mM NaCl, 10 mM Hepes-Tris, pH 7.4, 1 mM CaCl2, 2.5 mM KCl, 2.5 mM MgSO4, 10 mM (+) D-glucose.
Flp-in™-CHO (Invitrogen Cat n° R758-07) cells stably transfected with mGlyT1b cDNA.
Glycine Uptake Inhibition Assay (mGlyT-1b)
On day 1 mammalian cells, (Flp-in™-CHO), transfected with mGlyT-1b cDNA, were plated at the density of 40,000 cells/well in complete F-12 medium, without hygromycin in 96-well culture plates. On day 2, the medium was aspirated and the cells were washed twice with uptake buffer (UB). The cells were then incubated for 20 min at 22° C. with either (i) no potential competitor, (ii) 10 mM non-radioactive glycine, (iii) a concentration of a potential inhibitor. A range of concentrations of the potential inhibitor was used to generate data for calculating the concentration of inhibitor resulting in 50% of the effect (e.g. IC50, the concentration of the competitor inhibiting glycine uptake of 50%). A solution was then immediately added containing [^3H]-glycine 60 nM (11-16 Ci/mmol) and 25 μM non-radioactive glycine. The plates were incubated with gentle shaking and the reaction was stopped by aspiration of the mixture and washing (three times) with ice-cold UB. The cells were lysed with scintillation liquid, shaken 3 hours and the radioactivity in the cells was counted using a scintillation counter.

**Q.** How did the IC50 turn out when CN1CCC[C@@](NC(=O)c2ccc(C(F)(F)F)cc2C2CC2)(c2ccccc2)C1 (stereo in doubt) [Example 57, 2-Cyclopropyl-N-((R)-1-methyl-3-phenyl-piperidin-3-yl)-4-trifluoromethyl-benzamide hydrochloride] was run?
**A.** 22.7 nM

**Q.** How did the IC50 turn out when COc1cc(C(F)(F)F)cc(SC)c1C(=O)NC1(c2ccc(F)cc2Cl)CCCN(C)C1 (racemic) [Example 88, rac-N-[3-(2-Chloro-4-fluoro-phenyl)-1-methyl-piperidin-3-yl]-2-methoxy-6-methylsulfanyl-4-trifluoromethyl-benzamide] was run?
**A.** 146 nM

**Q.** With COc1cc(C(F)(F)F)cc(SC)c1C(=O)NC1(c2ccccc2)CCCN(C(C)C)C1 (racemic) [Example 55, rac-N-(1-Isopropyl-3-phenyl-piperidin-3-yl)-2-methoxy-6-methylsulfanyl-4-trifluoromethyl-benzamide; hydrochloride] as the compound, how does the IC50 read?
**A.** 77.7 nM

**Q.** Which IC50 does the source give for COc1cc(C(F)(F)F)cc(SC)c1C(=O)NC1(c2ccc(Cl)cc2)CCCN(C)C1 (racemic) [Example 28, rac-N-[3-(4-Chloro-phenyl)-1-methyl-piperidin-3-yl]-2-methoxy-6-methylsulfanyl-4-trifluoromethyl-benzamide] here?
**A.** 27.7 nM

**Q.** How did the IC50 turn out when COc1cc(C(F)(F)F)cc(SC)c1C(=O)NC1(c2ccccc2)CN(C)CC(C)(C)C1 (single isomer, unassigned) [Example 116, 2-Methoxy-6-methylsulfanyl-4-trifluoromethyl-N-((S or R)-1,5,5-trimethyl-3-phenyl-piperidin-3-yl)-benzamide] was run?
**A.** 35.8 nM

**Q.** COc1cc(C(F)(F)F)cc(SC)c1C(=O)N[C@@]1(c2ccccc2)C[C@H](OC)CN(C)C1 (stereo in doubt) [Example 108, 2-Methoxy-N-((3R,5S) or (3S,5R)-5-methoxy-1-methyl-3-phenyl-piperidin-3-yl)-6-methylsulfanyl-4-trifluoromethyl-benzamide] was tested. Which IC50 did it give?
**A.** 40.9 nM

**Q.** COc1cc(C(F)(F)F)cc(C(F)(F)F)c1C(=O)NC1(c2ccccc2)CCCN(C)C1 (racemic) [Example 16, rac-2-Methoxy-N-(1-methyl-3-phenyl-piperidin-3-yl)-4,6-bis-trifluoromethyl-benzamide] was tested. Which IC50 did it give?
**A.** 138 nM

**Q.** How did the IC50 turn out when COc1cc(C(F)(F)F)cc(SC)c1C(=O)NC1(c2ccccc2F)CCCN(C)C1 (single isomer, unassigned) [Example 111, N-[(R or S)-3-(2-Fluoro-phenyl)-1-methyl-piperidin-3-yl]-2-methoxy-6-methylsulfanyl-4-trifluoromethyl-benzamide] was run?
**A.** 57.3 nM

**Q.** How did the IC50 turn out when CO[C@@H]1CN(C)C[C@](NC(=O)c2ccc(C(F)(F)F)cc2C2CC2)(c2ccccc2)C1 (racemic) [Example 76, 2-Cyclopropyl-N-((3RS,5SR)-5-methoxy-1-methyl-3-phenyl-piperidin-3-yl)-4-trifluoromethyl-benzamide] was run?
**A.** 92.9 nM

**Q.** Which IC50 does the source give for CCc1cc(C(F)(F)F)ccc1C(=O)NC1(c2ccccc2)CCCN(C)C1 (racemic) [Example 4, rac-2-Ethyl-N-(1-methyl-3-phenyl-piperidin-3-yl)-4-trifluoromethyl-benzamide] here?
**A.** 26.4 nM

**Q.** For COc1cc(C(F)(F)F)cc(SC)c1C(=O)NC1(c2ccc(F)c(C)c2)CCCN(C)C1 (racemic) [Example 97, rac-N-[3-(4-Fluoro-3-methyl-phenyl)-1-methyl-piperidin-3-yl]-2-methoxy-6-methylsulfanyl-4-trifluoromethyl-benzamide], which IC50 is on record?
**A.** 185 nM

**Q.** With COc1cc(C(F)(F)F)cc(SC)c1C(=O)NC1(c2cc(F)ccc2F)CCCN(C)C1 (single isomer, unassigned) [Example 113, N-[(R or S)-3-(2,5-Difluoro-phenyl)-1-methyl-piperidin-3-yl]-2-methoxy-6-methylsulfanyl-4-trifluoromethyl-benzamide] as the compound, how does the IC50 read?
**A.** 56.4 nM

**Q.** Which IC50 does the source give for CCc1cc(C(F)(F)F)ccc1C(=O)N[C@@]1(c2ccccc2)C[C@H](OC)CN(C)C1 (racemic) [Example 125, 2-Ethyl-N-((3R,5S) or (3S,5R)-5-methoxy-1-methyl-3-phenyl-piperidin-3-yl)-4-trifluoromethyl-benzamide] here?
**A.** 176 nM

**Q.** For COc1cc(C(F)(F)F)cc(SC)c1C(=O)N[C@@]1(c2ccccc2)C[C@H](C)CN(C)C1 (mixture of isomers) [Example 85, N-((3R,5SR)-1,5-Dimethyl-3-phenyl-piperidin-3-yl)-2-methoxy-6-methylsulfanyl-4-trifluoromethyl-benzamide hydrochloride], which IC50 is on record?
**A.** 31.3 nM

**Q.** With COc1cc(C(F)(F)F)cc(SC)c1C(=O)NC1(c2cccc(C(F)(F)F)c2)CCCN(C)C1 (racemic) [Example 89, rac-2-Methoxy-6-methylsulfanyl-N-[1-methyl-3-(3-trifluoromethyl-phenyl)-piperidin-3-yl]-4-trifluoromethyl-benzamide] as the compound, how does the IC50 read?
**A.** 107 nM

**Q.** How did the IC50 turn out when CN1CCCC(NC(=O)c2ccc(C(F)(F)F)cc2OC(F)F)(c2ccccc2)C1 (racemic) [Example 39, rac-2-Difluoromethoxy-N-(1-methyl-3-phenyl-piperidin-3-yl)-4-trifluoromethyl-benzamide] was run?
**A.** 184 nM

**Q.** How did the IC50 turn out when COc1cc(C(F)(F)F)cc(SC)c1C(=O)NC1(c2ccc(F)cc2)CCCN(C)C1 (racemic) [Example 27, rac-N-[3-(4-Fluoro-phenyl)-1-methyl-piperidin-3-yl]-2-methoxy-6-methylsulfanyl-4-trifluoromethyl-benzamide] was run?
**A.** 26.2 nM

**Q.** Which IC50 does the source give for COc1cc(C(F)(F)F)cc(SC)c1C(=O)NC1(c2ccccc2)CCCN(C)C1C (racemic) [Example 11, rac-N-(1,2-Dimethyl-3-phenyl-piperidin-3-yl)-2-methoxy-6-methylsulfanyl-4-trifluoromethyl-benzamide] here?
**A.** 20.2 nM

**Q.** How did the IC50 turn out when COc1cc(C(F)(F)F)cc(SC)c1C(=O)NC1(c2ccccc2)CC(F)CN(C)C1 (racemic) [Example 48, rac-N-(5-Fluoro-1-methyl-3-phenyl-piperidin-3-yl)-2-methoxy-6-methylsulfanyl-4-trifluoromethyl-benzamide] was run?
**A.** 197 nM

**Q.** With COc1cc(C(F)(F)F)cc(SC)c1C(=O)NC1(c2ccccc2F)CCCN(C)C1 (racemic) [Example 68, rac-N-[3-(2-Fluoro-phenyl)-1-methyl-piperidin-3-yl]-2-methoxy-6-methylsulfanyl-4-trifluoromethyl-benzamide] as the compound, how does the IC50 read?
**A.** 175 nM

**Q.** How did the IC50 turn out when CCc1cc(C(F)(F)F)cc(C(F)(F)F)c1C(=O)NC1(c2ccccc2)CCCN(C)C1 (racemic) [Example 25, rac-2-Ethyl-N-(1-methyl-3-phenyl-piperidin-3-yl)-4,6-bis-trifluoromethyl-benzamide] was run?
**A.** 126 nM

**Q.** How did the IC50 turn out when COc1cc(C(F)(F)F)cc(SC)c1C(=O)NC1(c2ccccc2)CN(C)CC(C)(C)C1 (racemic) [Example 99, rac-2-Methoxy-6-methylsulfanyl-4-trifluoromethyl-N-(1,5,5-trimethyl-3-phenyl-piperidin-3-yl)-benzamide hydrochloride] was run?
**A.** 36.6 nM

**Q.** Which IC50 does the source give for COc1cc(C(F)(F)F)cc(SC)c1C(=O)NC1(c2ccccc2)CCC(C)(C)N(C)C1 (racemic) [Example 84, rac-2-Methoxy-6-methylsulfanyl-4-trifluoromethyl-N-(1,6,6-trimethyl-3-phenyl-piperidin-3-yl)-benzamide hydrochloride] here?
**A.** 17.3 nM

**Q.** For CC(C)c1cc(C(F)(F)F)ccc1C(=O)NC1(c2ccccc2)CCCN(C)C1 (racemic) [Example 70, rac-2-Isopropyl-N-(1-methyl-3-phenyl-piperidin-3-yl)-4-trifluoromethyl-benzamide hydrochloride], which IC50 is on record?
**A.** 197 nM

**Q.** Which IC50 does the source give for COc1cc(C(F)(F)F)cc(SC)c1C(=O)NC1(c2ccc(F)c(Cl)c2)CCCN(C)C1 (racemic) [Example 94, rac-N-[3-(3-Chloro-4-fluoro-phenyl)-1-methyl-piperidin-3-yl]-2-methoxy-6-methylsulfanyl-4-trifluoromethyl-benzamide] here?
**A.** 59.6 nM

**Q.** For CCc1c(C(=O)NC2(c3ccccc3)CCCN(C)C2)ccc(C(F)(F)F)c1C (racemic) [Example 103, rac-2-Ethyl-3-methyl-N-(1-methyl-3-phenyl-piperidin-3-yl)-4-trifluoromethyl-benzamide formic acid], which IC50 is on record?
**A.** 77.3 nM
